Test results as given in patent publication EP2982680B1, “PROTAMINE PEPTIDOMIMETIC, AND PHARMACEUTICALLY ACCEPTABLE SALTS AND USE THEREOF” (Academy of Military Medical Sciences, priority 2013, dated 2014).
Where a SMILES comes first, the peptide text is derived from it. Where no end group is shown, it is not given here.

Key:
[1] = amino acid; cited from earlier work
[2] = Water solubility of synthesized peptides
heparin = experiment: Antagonism of protamine-like peptides against heparin anticoagulation in vitro (heparin neutralization, rabbit whole blood clotting); design: species or system New Zealand rabbits; details: for Amount of neutralized heparin (U/mg) Mean ± SD: average from five tests; for Amount of neutralized heparin (U/mg) Mean ± SD / Clotting time / Amount of neutralized heparin (U/mg) 1 / Amount of neutralized heparin (U/mg) 2 / Amount of neutralized heparin (U/mg) 3 / Amount of neutralized heparin (U/mg) 4 / Amount of neutralized heparin (U/mg) 5: rabbit whole blood added with heparin; for I (Anti-heparin index): concentration of polypeptide/1 unit of heparin, lower index = better antagonism; for Clotting time: 37 °C, blank control 10.62±0.49; for Amount of neutralized heparin (U/mg) 1: repeat 1 of 5; for Amount of neutralized heparin (U/mg) 1 / Amount of neutralized heparin (U/mg) 2 / Amount of neutralized heparin (U/mg) 3 / Amount of neutralized heparin (U/mg) 4 / Amount of neutralized heparin (U/mg) 5: test sample 1 mg per mL; for Amount of neutralized heparin (U/mg) 2: repeat 2 of 5; for Amount of neutralized heparin (U/mg) 3: repeat 3 of 5; for Amount of neutralized heparin (U/mg) 4: repeat 4 of 5; for Amount of neutralized heparin (U/mg) 5: repeat 5 of 5
Text: Reference standard of heparin was exactly weighed and then dissolved into several solutions with different concentrations by adding 0.9% sodium chloride solution according to the marked potency. The increment of heparin units per mL between two solutions having adjacent concentrations should be similar with no more than five units.
The test sample was the protamine-like peptide. If the test sample was in a powder form, it was accurately weighed on the basis of dry sample. Then, a solution of 0.9% sodium chloride was added thereto to provide a solution containing 1 mg of test sample per mL.
Eight small dry clean teat tubes with the same diameter (0.8 × 3.8 cm) were picked. Tube 1 and Tube 8 were used as the blank control into which 0.2 mL of 0.9% sodium chloride solution was added. Tube 2 to Tube 7 were used as the ones with test samples into each of which 0.1 ml of test solution was added together with 0.1 ml of heparin standard dilution having one concentration mentioned above. The mixture was well mixed immediately. An appropriate amount (0.8 ml) of whole blood freshly drawn from rabbits was added into these eight test tubes described above and then well mixed immediately to avoid generation of bubbles. Timing began at that time and the test tubes were all placed in a thermostatic water bath at 37 ± 0.5 °C. The interval between blood sampling and tube incubation in the thermostatic water bath should not be longer than two minutes. If the plasma was used, then 0.7 mL of plasma was added to each of the test tubes described above and then the test tubes were placed into a thermostatic water bath at 37 ± 0.5 °C to warm up for 5 to 10 minutes. Then, into each test tube, 0.1 mL of 1% calcium chloride solution was added and immediately mixed to avoid generation of bubbles. At that time, timing began. The test tubes were observed and the time until coagulation was recorded.
The clotting time in one control tube should not be more than 1.35 times longer than that in the other control tube. Among test tubes where the clotting time was no longer than 150% of the average coagulating time in two control tubes, the tube with the highest concentration of heparin was used as the endpoint tube.
The test was repeated for five times. The concentration of heparin in the endpoint tube was measured in all five tests, and the deviation was not allowed to be higher than 10 units. The average from five tests was deemed as the number of units of the heparin neutralized by 1 mg of the test sample (dry product) (the amount of neutralized heparin).
The anticoagulant time of heparin, i.e. the clotting time from the addition of the series of protamine-like peptides, were recorded where the clotting time in tubes with plasma but not heparin was considered as the control clotting time. The average value in each coagulation test was calculated, and ratio of the concentration in nmol of the added potamine-like peptide to 1 IU of neutralized heparin was regarded as the anti-heparin index (I) of the protamine-like peptide. Anti-heparin index = concentration of polypeptide/1 unit of heparin (nmol/U). [formula]

## N=C(N)NCCC[C@H](N)C(=O)O [Arginine]
[1]
  isoelectric point (pI): 10.76

## N[C@@H](Cc1c[nH]cn1)C(=O)O [Histidine]
[1]
  isoelectric point (pI): 7.59

## NCCCC[C@H](N)C(=O)O [Lysine]
[1]
  isoelectric point (pI): 9.74

## N=C(N)NCCC[C@H](NC(=O)[C@H](CCCNC(=N)N)NC(=O)[C@@H](N)CCCNC(=N)N)C(=O)O [R3, (R)3] (H-Arg-Arg-Arg-OH)
[2]
  water solubility: good water solubility

## N=C(N)NCCC[C@H](NC(=O)[C@H](CCCNC(=N)N)NC(=O)[C@H](CCCNC(=N)N)NC(=O)[C@H](CCCNC(=N)N)NC(=O)[C@H](CCCNC(=N)N)NC(=O)[C@H](CCCNC(=N)N)NC(=O)[C@@H](N)CCCNC(=N)N)C(=O)O [R7, (R)7]
[2]
  water solubility: good water solubility

## N=C(N)NCCC[C@H](NC(=O)[C@H](CCCNC(=N)N)NC(=O)[C@H](CCCNC(=N)N)NC(=O)[C@H](CCCNC(=N)N)NC(=O)[C@H](Cc1c[nH]cn1)NC(=O)[C@H](CCCNC(=N)N)NC(=O)[C@H](CCCNC(=N)N)NC(=O)[C@H](CCCNC(=N)N)NC(=O)[C@H](CCCNC(=N)N)NC(=O)[C@H](CCCNC(=N)N)NC(=O)[C@H](CCCNC(=N)N)NC(=O)[C@H](CCCNC(=N)N)NC(=O)[C@H](CCCNC(=N)N)NC(=O)[C@H](CCCNC(=N)N)NC(=O)[C@@H](N)CCCNC(=N)N)C(=O)O [R15-5]
[2]
  water solubility: good water solubility

## KKKKKKKKKKKKKKK [K15, (K)15]
[2]
  water solubility: good water solubility

## RRRRR [R5, (R)5]
[2]
  water solubility: good water solubility

## RRRRRRHRRRRRRRR [R15-8]
heparin
  Amount of neutralized heparin (U/mg) Mean ± SD: 108.4±1.32 U/mg
  I (Anti-heparin index): 3.93 nmol/U
  Clotting time: 14.35 ± 0.38 min
  Amount of neutralized heparin (U/mg) 1: 110 U/mg
  Amount of neutralized heparin (U/mg) 2: 105 U/mg
  Amount of neutralized heparin (U/mg) 3: 105 U/mg
  Amount of neutralized heparin (U/mg) 4: 112 U/mg
  Amount of neutralized heparin (U/mg) 5: 110 U/mg
[2]
  water solubility: good water solubility

## RRRRRRRRRRRRRHR [R15-2]
heparin
  Amount of neutralized heparin (U/mg) Mean ± SD: 110±1.342 U/mg
  I (Anti-heparin index): 4.66 nmol/U
  Clotting time: 13.35 ± 0.56 min
  Amount of neutralized heparin (U/mg) 1: 110 U/mg
  Amount of neutralized heparin (U/mg) 2: 113 U/mg
  Amount of neutralized heparin (U/mg) 3: 110 U/mg
  Amount of neutralized heparin (U/mg) 4: 110 U/mg
  Amount of neutralized heparin (U/mg) 5: 110 U/mg
[2]
  water solubility: good water solubility

## RRRRRRRRRRRRRRRRRRRR [R20, (R)20]
[2]
  water solubility: good water solubility
